Laboratory results reported in PubChem BioAssay (NCI).
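A five-concentration, 48-hour dose response in 96-well plates underlies each endpoint, interpolated linearly between surrounding concentrations. Here, GI50 denotes the concentration required for 50% inhibition of growth. TGI marks complete inhibition of growth.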

Legend:
Assay in all cases: NCI-60 cell line screen, 48 h
SF-295 CNS = system: SF-295 CNS
SF-268 CNS = system: SF-268 CNS
M14 melanoma = system: M14 melanoma
MOLT-4 leukemia = system: MOLT-4 leukemia
OVCAR-8 ovarian = system: OVCAR-8 ovarian
SW-620 colon = system: SW-620 colon
DU-145 prostate = system: DU-145 prostate
SF-539 CNS = system: SF-539 CNS
LOX IMVI melanoma = system: LOX IMVI melanoma
SNB-75 CNS = system: SNB-75 CNS

SMILES | TGI (SF-295 CNS) [µM] | TGI (SF-268 CNS) [µM] | TGI (M14 melanoma) [µM] | TGI (MOLT-4 leukemia) [µM] | TGI (OVCAR-8 ovarian) [µM] | TGI (SW-620 colon) [µM] | TGI (DU-145 prostate) [µM] | TGI (SF-539 CNS) [µM] | TGI (LOX IMVI melanoma) [µM] | TGI (SNB-75 CNS) [µM] | GI50 (SF-295 CNS) [µM] | GI50 (SF-268 CNS) [µM] | GI50 (M14 melanoma) [µM] | GI50 (MOLT-4 leukemia) [µM] | GI50 (OVCAR-8 ovarian) [µM] | GI50 (SW-620 colon) [µM] | GI50 (DU-145 prostate) [µM] | GI50 (SF-539 CNS) [µM] | GI50 (LOX IMVI melanoma) [µM] | GI50 (SNB-75 CNS) [µM]
CNC(=O)NC(CCCCNC(=O)OCc1ccccc1)C(=O)OCc1ccccc1 (stereo not drawn) | > 100 | > 100 | 43 | 58.7 | > 87.5 | > 100 | > 100 | 49.9 | > 78.2 | 43.9 |  |  |  |  |  |  |  |  |  | 
COc1ccc(OC)c(/C=C2\COc3ccc(O)c(O)c3C2=O)c1 | 15.5 | 10.8 | 6.9 | > 100 | 27 | 5.98 | 7.28 | 5.19 | 3.02 | 18.3 | 4.29 | 2.19 | 2.09 | 1.97 | 3.05 | 2.22 | 2.27 | 2.23 | 1.48 | 3.72
COc1cc(C2CC(c3ccccc3)=NN2C(C)=O)cc(OC)c1OC (stereo not drawn) | 4.15 | > 100 | > 34.2 | > 100 | > 100 | > 100 | 77.3 | 17.8 | > 100 | 13.3 | 0.576 | 5.37 | 2.47 | 5.5 | 7.43 | 3.04 | 5.26 | 3.06 | 6.38 | 1.74
O=C(O)c1c[nH]c2c(OCc3ccccc3)c3ccccc3c(O)c2c1=O | 27.8 | 64 | 25.2 | 36.9 | 40.9 |  | 37.2 | 36.4 | 11 | 43.1 | 13 | 22.4 | 12.6 | 15.6 | 11.8 |  | 21.1 | 19.7 | 3.24 | 19.5
Cc1ccc(NC2=C(Cl)C(=O)N(Cc3ccccc3)C2=O)cc1Cl | 22.5 | 15.1 | 22.9 | 6.81 | 9.93 | 16.9 | 27.8 |  | 14.2 |  | 7.66 | 3.28 | 11 | 1.71 | 2.32 | 5.14 | 14.4 |  | 2.53 | 
Cc1ccc(-c2nc(N)c(C#N)c3c2CCOc2c-3ccc3ccccc23)cc1 | 1.87 | 31.6 | > 22.9 | > 100 | 27.8 | > 93.4 | 17.2 | 3.48 |  | > 100 | 0.144 | 0.356 | 0.377 | 0.42 | 2.28 | 1.76 | 2.04 | 0.457 |  | 5.02
O=C(Cc1ccccc1)NC(c1ccc(Cl)cc1)c1c(O)ccc2ccccc12 (stereo not drawn) | 7.5 | 16 |  | 20.3 | 16.9 | 13.4 | 17 | 7.51 | 9.71 | 12.4 | 2.35 | 4.25 |  | 3.51 | 3.56 | 3.22 | 4.68 | 2.53 | 3.11 | 2.22
O=C(NCCNc1nccc(-c2c(-c3ccc(F)cc3)nc3sccn23)n1)c1ccccc1 | 27.5 | > 100 | 22.3 | 54.8 | > 100 | 85.6 | > 100 | 29.5 | 31.4 | 62.5 | 6.97 | 12.4 | 7.97 | 12.2 | 5.95 | 7.44 | 12.7 | 12.2 | 4.3 | 7.27
N#C/C(=C1C=C/C(=N\O)C(Cl)=C\1)c1ccccc1 | > 100 | 14.3 | 14.2 | 9.02 | 9.23 | 12.9 | 9.47 | 5 |  | 20.5 | 3.74 | 2.19 | 3.2 | 2.91 | 2.71 | 1.42 | 3.32 | 1.34 |  | 3.5
CS(=O)(=O)c1ccc(Oc2cc(F)cc(C#N)c2)c2c1[C@H](O)C(F)(F)C2 | > 100 | > 100 | > 100 | > 100 | > 100 | > 100 | > 100 | > 100 | > 100 | > 100 | > 100 | > 100 | > 100 | > 100 | > 100 | > 100 | > 100 | > 100 | > 100 | > 100
O=C1/C(=C/c2ccccc2F)CN(C(=O)C(Cl)Cl)C/C1=C\c1ccccc1F | 1.52 | 3.72 | 1.61 |  | 1.11 | 0.343 | 2.35 | 1.78 | 0.297 | 1.95 | 0.391 | 0.916 | 0.387 | 0.329 | 0.313 | 0.093 | 1.01 | 0.431 | 0.11 | 0.572
Cc1sc(NC2=NC(=O)/C(=C\c3ccccc3)S2)nc1-c1nc(NC2=NC(=O)/C(=C\c3ccccc3)S2)sc1C | > 40.7 | 49.4 | 23.6 | > 50 | > 39.6 | > 50 | > 20.6 | > 34.1 | 35.3 |  | 13.2 | 14.7 | 9.51 | 24.2 | 16.5 | 16.7 | 0.382 | 17.9 | 11.2 | 
C=C(C)[C@@H]1CC[C@]2(C(=O)O)CC[C@]3(C)[C@H](CC[C@@H]4[C@@]5(C)C/C(=C/c6ccc(OC)cc6)C(=O)C(C)(C)[C@@H]5CC[C@]43C)[C@@H]12 | 4.45 | 17.4 | 3.9 | > 100 | 33.1 | 4.61 | 15.3 | 4.16 |  | 27.1 | 1.71 | 2.85 | 1.67 | 2.97 | 3.16 | 1.95 | 3.09 | 1.94 |  | 2.68
